In EPA's ToxValDB 9.5 (doi:10.2903/j.efsa.2008.168r):

Legend:
[1] = test system: Aphidius rhopalosiphi; assay: LR50; higher = less toxic; settings: not reported; mortality
[2] = test system: Tagia sp.
[3] = test system: Canidae; settings: chronic; duration: 1 years; oral; Dog Other; body weight
[4] = test system: Oncorhynchus mykiss; settings: acute; duration: 96 hours; mortality
[5] = test system: Folsomia candida; settings: chronic/long-term
[6] = test system: Anas platyrhynchos
[7] = test system: Oryctolagus sp.; settings: reproduction developmental; body weight
[8] = test system: Pimephales promelas; settings: chronic/long-term; duration: 32 days
[9] = test system: Apis mellifera; settings: acute; duration: 48 hours; oral; unspecified; mortality
[10] = test system: Mus musculus; settings: chronic; duration: 2 years; body weight
[11] = test system: Rattus norvegicus
[12] = test system: Bibionidae; settings: chronic/long-term; duration: 26 days
[13] = test system: Daphnia magna; settings: chronic/long-term; duration: 21 days; reproduction
[14] = test system: Coturnix japonica; settings: acute, oral, mortality
[15] = test system: Anatidae; settings: oral, mortality
[16] = test system: Colinus virginianus

Structure (SMILES): Nc1nc(N)nc(NC2CC2)n1 [Cyromazine]
- LR50 [1]: ≥ 891 g/ha
- LC50 ([2]; acute, duration: 14 days, mortality): > 1000 mg/kg
- NOEC ([2]; chronic/long-term, duration: 56 days, reproduction): 333 mg/kg
- NOAEL [3]: 5.74 mg/kg-day
- LC50 [4]: > 100 µg/mL
- NOEC [5]: 9.6 mg/kg
- LD50 ([6]; acute, oral, unspecified, mortality): > 2510 mg/kg
- NOEL ([6]; reproductive): 38.3 mg/kg-day
- LC50 ([6]; short-term, oral, feed, mortality): > 526 mg/kg-day
- NOAEL [7]: 10 mg/kg-day
- NOEC [8]: 14 mg/L
- LD50 [9]: 186 µg/piece
- NOAEL [10]: 6.5 mg/kg-day
- LD50 ([11]; acute, mortality): 3390 mg/kg
- NOAEL ([11]; reproduction developmental, reproduction): 30 mg/kg-day
- NOEC [12]: 0.025 mg/L
- NOEC [13]: 0.31 mg/L
- LC50 ([14]; diet): > 683 mg/kg-day
- LD50 [14]: 2340 mg/kg
- LD50 ([15]; acute, unspecified): > 1000 mg/kg
- LC50 ([15]; short-term, feed): > 1120 mg/kg-day
- LC50 ([16]; acute, oral, diet, mortality): > 1370 mg/kg-day
- LD50 ([16]; acute, oral, mortality): 1780 mg/kg
- NOEL ([16]; reproduction developmental): 110 mg/kg-day
